Measured values reported in article PMC10363774 (RSC Advances, 2023).

Legend:
[1] = test system: HCT-116 cells (colon cancer); test: MTT anti-proliferative assay, HCT-116; format: cell-based; details: Homo sapiens, HCT-116, 48 h, read-out: In vitro cytotoxicity IC50 HCT 116
[2] = test system: MCF-7 cells (breast cancer); test: MTT anti-proliferative assay, MCF-7; format: cell-based; details: Homo sapiens, MCF7, 48 h, read-out: In vitro cytotoxicity IC50 MCF-7
IL-6 = test: In vitro immunomodulatory assay, IL-6; format: cell-based, human; details: HCT-116 cells, 24 h, at the IC50 concentration

CNC(=O)c1cc(Oc2ccc(NC(=O)Nc3ccc(Cl)c(C(F)(F)F)c3)cc2)ccn1 [Sorafenib]
IC50 [1]: 8.96 ± 0.05 µM
IC50 [2]: 11.83 ± 0.07 µM

C[C@@H]1C[C@H]2[C@@H]3CCC4=CC(=O)C=C[C@]4(C)[C@@]3(F)[C@@H](O)C[C@]2(C)[C@@]1(O)C(=O)CO [Dexamethasone]
Pro-inflammatory factors inhibition IL-6 (IL-6): 93.15 pg per mL %
